Experimental data: US20160120832A1, “LIPID SCAVENGING IN RAS CANCERS” (MEMORIAL SLOAN KETTERING CANCER CENTER, priority 2013, published 2016)
Entries after “also recorded” stand apart in the source; their conditions may differ.

Key:
A549 lung cancer cells = assay: Cell growth with SCD1 inhibitor (xCELLigence real-time proliferation / culture dishes); format: cell-based, human
Text: (§1) Cell lines were from ATCC with the following exceptions: the immortalized Baby Mouse Kidney (iBMK) cell lines were derived from primary kidney epithelial cells from Bax^−/−/Bak^−/− mice, immortalized by E1A and dominant-negative p53 expression, and transfected with control vector, human oncogenic H-Ras^V12G, or myrAKT (31); and the Human Pancreatic Nestin Expressing (HPNE) cells (a generous gift of A. Maitra) were developed from human pancreatic duct by transduction with a retroviral expression vector (pBABEpuro) containing the hTERT gene and transfected with control vector or human oncogenic K-Ras^G12D. Cell lines were routinely passaged in Dulbecco's Modified Eagle Medium (DMEM, Mediatech) with 25 mM glucose and 4 mM glutamine and supplemented with 10% Fetal Bovine Serum (HyClone), 25 IU/ml penicillin, and 25 μg/ml streptomycin (MP Biomedicals) and split at 80% confluence. Metabolic experiments were performed in 6 cm culture dishes with 3 ml of DMEM containing 10% dialyzed serum (DFBS, HyClone). For isotope labeling, glucose and glutamine were replaced with their U-^13C-labeled forms (Cambridge Isotope Labs). Hypoxia experiments were performed in a hypoxic glove box (0.5% or 1% O2 as indicated, 5% CO2 and 94-94.5% N2, 37° C.) (Coy Laboratory Products). Cells and media were equilibrated in low oxygen overnight before experiment initiation. CAY10566 was from Cayman Chemical. Lipid supplements were from Avanti Polar Lipids. LPC(18:1) and LPC(18:0) were dissolved in phosphate buffered saline (PBS); MG(18:1) in methanol; and PC(16:0-18:1) in 1:9 chloroform:methanol. Organic solvents were <0.1% v/v in the medium.
(§2) Cell proliferation was determined with either Packed Cell Volume tubes (PCV, Techno Plastic Products AG) or with the xCELLigence system (Roche). Animal studies were performed following the guidelines for proper and humane use of animals in research under an IACUC-approved protocol. […] Xenograft tumors were measured biweekly and tumor volume calculated as volume=(length×width^2×π/6).

iBMK-H-Ras^V12G cells [1] = assay: Cell growth with SCD1 inhibitor; format: cell-based, mouse; conditions: 10% serum, for 3 population doublings
Text: as §1, with “Hypoxia experiments were performed in a hypoxic glove box (0.5% or 1% O2 as indicated, 5% CO2 and 94-94.5% N2, 37° C.) (Coy Laboratory Products). Cells and media were equilibrated in low oxygen overnight before experiment initiation. CAY10566 was from Cayman Chemical. Lipid supplements were from Avanti Polar Lipids. LPC(18:1) and LPC(18:0) were dissolved in phosphate buffered saline (PBS); MG(18:1) in methanol; and PC(16:0-18:1) in 1:9 chloroform:methanol. Organic solvents were <0.1% v/v in the medium.” left out
(§3) Cell proliferation was determined with either Packed Cell Volume tubes (PCV, Techno Plastic Products AG) or with the xCELLigence system (Roche). […] Xenograft tumors were measured biweekly and tumor volume calculated as volume=(length×width^2×π/6).

iBMK-myrAkt cells [2] = assay: Cell growth with SCD1 inhibitor; format: cell-based, mouse; conditions: 10% serum
Text: as §1, with “Hypoxia experiments were performed in a hypoxic glove box (0.5% or 1% O2 as indicated, 5% CO2 and 94-94.5% N2, 37° C.) (Coy Laboratory Products). Cells and media were equilibrated in low oxygen overnight before experiment initiation. CAY10566 was from Cayman Chemical. Lipid supplements were from Avanti Polar Lipids. LPC(18:1) and LPC(18:0) were dissolved in phosphate buffered saline (PBS); MG(18:1) in methanol; and PC(16:0-18:1) in 1:9 chloroform:methanol. Organic solvents were <0.1% v/v in the medium.” left out
as §3

SCD1 [3] = target: T1, SCD1 (Homo sapiens, UniProt O00767); assay: C18:1 labeling from U-13C-glucose and U-13C-glutamine under SCD1 inhibition, A549 cells; format: cell-based; conditions: 200 nM CAY10566, A549 cells
T1 construct: endogenous in cells; host or cells: A549 lung cancer cells (ATCC)
T1 sequence (O00767 1-359): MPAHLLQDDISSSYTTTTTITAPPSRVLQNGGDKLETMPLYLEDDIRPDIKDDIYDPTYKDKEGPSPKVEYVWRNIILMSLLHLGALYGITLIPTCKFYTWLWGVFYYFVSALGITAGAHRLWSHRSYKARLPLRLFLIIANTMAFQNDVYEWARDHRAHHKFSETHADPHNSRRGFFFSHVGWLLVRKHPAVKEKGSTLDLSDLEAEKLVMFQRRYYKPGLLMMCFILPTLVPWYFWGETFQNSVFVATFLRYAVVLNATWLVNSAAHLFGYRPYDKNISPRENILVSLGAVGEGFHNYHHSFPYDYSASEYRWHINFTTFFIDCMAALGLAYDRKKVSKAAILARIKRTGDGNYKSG
Text: as §1, with “Lipid supplements were from Avanti Polar Lipids. LPC(18:1) and LPC(18:0) were dissolved in phosphate buffered saline (PBS); MG(18:1) in methanol; and PC(16:0-18:1) in 1:9 chloroform:methanol. Organic solvents were <0.1% v/v in the medium.” left out

SCD1 [4] = target: T2, SCD1 (Mus musculus, UniProt P13516); assay: C18:1 labeling from U-13C-glucose and U-13C-glutamine under SCD1 inhibition, iBMK cells; format: cell-based; conditions: 200 nM CAY10566, iBMK-H-Ras^V12G and iBMK-myrAkt cells, 48 h
T2 construct: endogenous in cells; host or cells: iBMK cells transfected with human H-Ras V12G or myrAkt (SCD1 itself not transfected)
T2 sequence (P13516 1-355): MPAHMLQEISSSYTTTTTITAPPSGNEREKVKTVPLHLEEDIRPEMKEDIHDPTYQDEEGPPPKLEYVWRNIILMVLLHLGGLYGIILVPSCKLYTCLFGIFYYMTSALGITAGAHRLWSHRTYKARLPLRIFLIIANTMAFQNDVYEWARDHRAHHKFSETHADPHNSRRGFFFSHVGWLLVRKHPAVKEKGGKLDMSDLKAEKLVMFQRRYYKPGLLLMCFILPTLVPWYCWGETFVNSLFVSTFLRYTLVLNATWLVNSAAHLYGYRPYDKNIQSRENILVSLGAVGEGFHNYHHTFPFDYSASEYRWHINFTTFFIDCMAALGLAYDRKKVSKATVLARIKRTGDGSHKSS
Text: as §1, with “Lipid supplements were from Avanti Polar Lipids. LPC(18:1) and LPC(18:0) were dissolved in phosphate buffered saline (PBS); MG(18:1) in methanol; and PC(16:0-18:1) in 1:9 chloroform:methanol. Organic solvents were <0.1% v/v in the medium.” left out

iBMK-H-Ras^V12G tumors = assay: Allograft tumor growth in athymic nude mice; format: in vivo, mouse; conditions: Ras-driven tumors, 2.5 mg/kg CAY10566 p.o. BID, day 13 or 14 post therapy
Experimental: (§4) Cell proliferation was determined with either Packed Cell Volume tubes (PCV, Techno Plastic Products AG) or with the xCELLigence system (Roche). Animal studies were performed following the guidelines for proper and humane use of animals in research under an IACUC-approved protocol. To generate allografts, 1×10^7 iBMK cells were implanted in matrigel (BD Biosciences) into nu/nu athymic female mice. After establishment of palpable tumors, mice were randomized to receive 2.5 mg/kg BID CAY10566 p.o. in 0.5% methylcellulose or vehicle control. Xenograft tumors were measured biweekly and tumor volume calculated as volume=(length×width^2×π/6).

iBMK-myrAkt tumors = assay: Allograft tumor growth in athymic nude mice; format: in vivo, mouse; conditions: Akt-driven tumors, 2.5 mg/kg CAY10566 p.o. BID, day 13 or 14 post therapy
Experimental: as §4

iBMK-H-Ras^V12G cells [5] = assay: Packed cell volume with SCD1 inhibitor plus supplemented lipids; format: cell-based, mouse; conditions: 200 nM SCDi (CAY10566), 20 μM lipid, 72 h
Text: as §1, §2

iBMK-myrAkt cells [6] = assay: as above; format: cell-based, mouse; conditions: 200 nM SCDi (CAY10566), 20 μM lipid, 72 h
Text: as §1, §2

cells = assay: Rescue of cells from SCD1 inhibition (discussion summary); format: cell-based; conditions: cell line not stated
iBMK cells = assay: Lipid composition and C18:1 import after LPC(18:1) supplementation; format: cell-based, mouse; conditions: 20 μM LPC(18:1)
Text: as §1, with “Lipid supplements were from Avanti Polar Lipids. LPC(18:1) and LPC(18:0) were dissolved in phosphate buffered saline (PBS); MG(18:1) in methanol; and PC(16:0-18:1) in 1:9 chloroform:methanol. Organic solvents were <0.1% v/v in the medium.” left out

A549 cells = assay: Packed cell volume with SCD1 inhibitor plus supplemented lipids; format: cell-based, human; conditions: 200 nM SCDi (CAY10566), 20 μM lipid, 72 h
Text: as §1, with “Hypoxia experiments were performed in a hypoxic glove box (0.5% or 1% O2 as indicated, 5% CO2 and 94-94.5% N2, 37° C.) (Coy Laboratory Products). Cells and media were equilibrated in low oxygen overnight before experiment initiation. CAY10566 was from Cayman Chemical. Lipid supplements were from Avanti Polar Lipids. LPC(18:1) and LPC(18:0) were dissolved in phosphate buffered saline (PBS); MG(18:1) in methanol; and PC(16:0-18:1) in 1:9 chloroform:methanol. Organic solvents were <0.1% v/v in the medium.” left out
as §3

Molecule | cell growth in real-time cell proliferation assay (A549 lung cancer cells; 200 nM CAY10566, 10% serum) | cell growth in standard cell culture conditions (A549 lung cancer cells; 200 nM CAY10566, first 48 h of growth) | cell growth, sensitivity to SCD1 inhibition (A549 lung cancer cells; SCD1 inhibitor, 2% serum) | cell growth (iBMK-H-Ras^V12G cells [1]) | cell growth (iBMK-myrAkt cells [2]) | C18:1 labeling from U-13C-glucose and U-13C-glutamine (SCD1 [3]) | C18:1 labeling / SCD1 block (SCD1 [4]) | mean tumor volume relative to untreated tumors (iBMK-H-Ras^V12G tumors) | mean tumor volume relative to untreated tumors (iBMK-myrAkt tumors) | proliferation / cell growth during SCD1 inhibition with supplemented lipid (iBMK-H-Ras^V12G cells [5]) | proliferation during SCD1 inhibition with supplemented lipid (iBMK-myrAkt cells [6]) | rescue of cells from SCD1 inhibition (cells) | desaturation index (C18:1/C18:0) (iBMK cells; 72 h, iBMK-H-Ras^V12G cells) | fraction of C18:1 derived from import (iBMK cells; both iBMK-H-Ras^V12G and iBMK-myrAkt cells) | proliferation during SCD1 inhibition with supplemented lipid (A549 cells)
Cc1nnc(-c2ccc(N3CCC(Oc4cc(F)ccc4Cl)CC3)nn2)o1 [CAY10566] | did not impair cell growth | did not impair cell growth | sensitive | grew almost normally | severely impaired | completely blocked; also recorded: blocks C18:1 labeling | fully blocked; also recorded: sufficient to fully block C18:1 labeling | 0.67+/−0.05 | 0.51+/−0.04 |  |  |  |  |  | 
CCCCCCCC/C=C\CCCCCCCC(=O)OC[C@@H](O)COP(=O)([O-])OCC[N+](C)(C)C [LPC(18:1), oleoyl lysophosphatidylcholine] |  |  |  |  |  |  |  |  |  | fully restored proliferation | only partially | rescues cells from SCD1 inhibition | increased significantly and selectively | increasing | complete rescue
oleolyl-monoacylglycerol [MG(18:1)] |  |  |  |  |  |  |  |  |  | restored cell proliferation |  |  |  |  | 
